Earlier results on two compounds are cited in paper PMC10385579, “Design, Synthesis, and Biological Evaluation of Indole-2-carboxamides as Potential Multi-Target Antiproliferative Agents” (Pharmaceuticals, 2023).

For one data set, the system named is cancer cell lines. Also on record: method as in PMID 32920363, PMID 29407956, PMID 36770936, PMID 36015154, PMID 35078049. Particulars: four cancer cell lines; read-out: GI50 vs four cancer cell lines; cited from earlier work.
For another data set, the system named is BRAF^V600E. Also on record: method as in PMID 32920363, PMID 29407956, PMID 36770936, PMID 36015154, PMID 35078049. Conditions: cited from earlier work.
In the next data set the test system is EGFR^T790M. Also noted: method as in PMID 32920363, PMID 29407956, PMID 36770936, PMID 36015154, PMID 35078049. Conditions: cited from earlier work.
For data set [1], the system named is mutant EGFR vs wild-type EGFR. Particulars: cited from earlier work.

pIC50: −log10 of the molar value.

What is called GI50 is the concentration giving 50% growth inhibition. One may read the pIC50 as the IC50 on a negative log10 scale, so that one unit is a factor of ten. As for `CCOC(=O)c1[nH]c2ccc(Cl)cc2c1CNCCc1cccc(N2CCCCC2)c1` [Compound 11], the GI50 with cancer cell lines is 29 nM. The pIC50 was 7.46 with BRAF^V600E and 8.07 with EGFR^T790M.

`C=CC(=O)Nc1cc(Nc2nccc(-c3cn(C)c4ccccc34)n2)c(OC)cc1N(C)CCN(C)C` [Osimertinib]: the “selectivity for the mutant protein over wild-type EGFR” value in data set [1] is “approximately 200 times”.
